Data on nine molecules can be found in publication PMC9609428, “Rational Design and Synthesis of New Selective COX-2 Inhibitors with In Vivo PGE2-Lowering Activity by Tethering Benzenesulfonamide and 1,2,3-Triazole Pharmacophores to Some NSAIDs” (Pharmaceuticals, 2022).

In series [1] the target is T1, (Ovis aries, UniProt P05979).
T1 construct: purchased Cayman Chemicals Inc., Ann Arbor, MI, USA 560131
T1 sequence (P05979 25-600): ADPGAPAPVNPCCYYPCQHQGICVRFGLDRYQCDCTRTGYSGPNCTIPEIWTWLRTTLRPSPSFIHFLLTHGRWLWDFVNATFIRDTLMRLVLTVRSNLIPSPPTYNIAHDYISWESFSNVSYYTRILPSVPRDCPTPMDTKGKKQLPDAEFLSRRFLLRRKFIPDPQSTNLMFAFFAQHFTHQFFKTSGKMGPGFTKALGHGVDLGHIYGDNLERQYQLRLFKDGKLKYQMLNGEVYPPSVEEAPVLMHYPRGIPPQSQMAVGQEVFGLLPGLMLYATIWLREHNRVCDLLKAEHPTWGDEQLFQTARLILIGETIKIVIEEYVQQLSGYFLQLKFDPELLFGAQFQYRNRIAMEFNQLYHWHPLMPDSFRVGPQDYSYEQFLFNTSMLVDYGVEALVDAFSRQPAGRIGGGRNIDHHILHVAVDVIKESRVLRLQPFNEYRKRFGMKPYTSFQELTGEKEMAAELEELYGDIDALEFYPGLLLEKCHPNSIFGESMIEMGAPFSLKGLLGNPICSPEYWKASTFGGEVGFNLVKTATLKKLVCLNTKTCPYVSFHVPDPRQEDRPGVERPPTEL
Description: In vitro human COX-1 enzymatic inhibitory activity (Cayman COX inhibitor screening assay kit). In kind it is biochemical. Conditions: mean ± SEM of triplicate determinations. As to the method: (§1) Inhibitory activities were defined as a test compound concentration achieving 50% human COX-1 or human COX-2 inhibition. The selectivity of compounds was referred to as a compound’s selectivity index values calculated as IC50 (COX-1)/IC50 (COX-2).
(§2) In vitro human COX-1 and human COX-2 enzymatic inhibitory activity of the tested compounds as well as the reference drugs was carried out according to the previously mentioned procedures; for details, see Page S15, Supplementary File.
(§3) 4.2. Biological screening
(§4) 4.2.1. In vitro human COX-1 and human COX-2 enzymatic inhibitory activities In vitro human COX-1 and human COX-2 enzymatic inhibitory activity of the tested compounds as well as the reference drugs was carried out according to the previously mentioned procedures [1][2]depending on Cayman colorimetric COX (ovine) inhibitor screening assay kit (Catalog No.
(§5) All reagents, test solutions and experimental procedures were performed in correspondence to both the manufacturer’s instructions and previously reported methods. Briefly, […] of different concentrations of tested compound solutions were added to a series of supplied reaction buffer solutions (960 µL, 0.1 M Tris-HCl, pH 8.0 containing 5 mM EDTA and 2 mM phenol) with either COX-1 or COX-2 (10 µL) enzyme in the presence of heme (10 µL). 10 µL of Arachidonic Acid (100 µM) solution were added to the mixtures of the enzyme and tested compounds, After incubating for 5 min at 25 °C followed by stopping COX reaction by adding of 50 µL of 1 M HCl. Moreover, after adding 100 µL of saturated stannous chloride solution, the absorbance was measured spectrophotometrically using plate reader. measuring the […]
(§6) percentage of human COX-1 or human COX-2 enzymatic inhibition of five different concentrations of each compound and then concentration-inhibition response curve were plotted to obtain IC50 values(three determinations). […]

Series [2] deals with T2, human COX-2 (Homo sapiens, UniProt P35354).
T2 construct: purchased Cayman Chemicals Inc., Ann Arbor, MI, USA 560131
T2 sequence (P35354 18-604): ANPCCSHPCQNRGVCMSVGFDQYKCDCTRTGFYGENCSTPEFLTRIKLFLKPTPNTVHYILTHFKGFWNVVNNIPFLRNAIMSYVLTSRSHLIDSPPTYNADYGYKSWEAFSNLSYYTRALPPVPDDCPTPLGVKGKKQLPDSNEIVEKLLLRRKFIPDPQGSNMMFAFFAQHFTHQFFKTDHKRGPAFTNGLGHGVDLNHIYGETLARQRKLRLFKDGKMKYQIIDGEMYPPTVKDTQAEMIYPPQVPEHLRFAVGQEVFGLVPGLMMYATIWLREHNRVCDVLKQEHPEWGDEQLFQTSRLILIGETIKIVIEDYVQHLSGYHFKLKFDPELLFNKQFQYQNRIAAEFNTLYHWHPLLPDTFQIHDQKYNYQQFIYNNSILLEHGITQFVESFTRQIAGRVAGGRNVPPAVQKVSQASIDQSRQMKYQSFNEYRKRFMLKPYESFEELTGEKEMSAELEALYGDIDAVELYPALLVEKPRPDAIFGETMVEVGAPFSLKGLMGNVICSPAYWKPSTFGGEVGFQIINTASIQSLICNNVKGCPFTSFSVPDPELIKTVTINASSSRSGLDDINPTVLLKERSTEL
Description: In vitro human COX-2 enzymatic inhibitory activity (Cayman COX inhibitor screening assay kit). In kind it is biochemical. The note with it: for SI COX-1/COX-2: COX-2 selectivity index: COX-1 IC50/COX-2 IC50; for IC50: mean ± SEM of triplicate determinations. The method, then:
as §1, §2, §3, §4, §5, §6

The molecule `CC(=O)c1nnn(-c2ccc(S(=O)(=O)Nc3ncccn3)cc2)c1C` [Compound 4c, 4-(4-Acetyl-5-methyl-1H-1,2,3-triazol-1-yl)-N-(pyrimidin-2-yl)benzenesulfonamide] displayed a melting point of 233 to 235 °C. This molecule returned a half-inhibitory concentration (IC50) in series [1] of 8.23 ± 0.0667 µM. Also, in series [2], the “SI COX-1/COX-2” value is listed as 91.44 and it took 90 ± 0.3 nM to reach half-maximal inhibition (IC50).
`CC(=NNC(=O)c1ccccc1O)c1nnn(-c2ccc(S(N)(=O)=O)cc2)c1C` [Compound 6g, 4-(4-(1-(2-(2-Hydroxybenzoyl)hydrazineylidene)ethyl)-5-methyl-1H-1,2,3-triazol-1-yl)benzenesulfonamide] gave a melting point of 220 to 222 °C. This molecule displayed an IC50 in series [1] of 6.67 ± 0.0667 µM. Besides, in series [2], the “SI COX-1/COX-2” value was determined as 83.38 and the midpoint of inhibition, the IC50, lay at 80 ± 0.6 nM.
For the molecule `CC(=O)c1nnn(-c2ccc(S(=O)(=O)Nc3nccc(C)n3)cc2)c1C` [Compound 4d, 4-(4-Acetyl-5-methyl-1H-1,2,3-triazol-1-yl)-N-(4-methylpyrimidin-2-yl)benzenesulfonamide], the melting point was in the range of 241 to 243 °C. The molecule also had an IC50 in series [1] of 9.27 ± 0.0667 µM. Besides, in series [2], the “SI COX-1/COX-2” value was 84.27 and it took 110 ± 5.7 nM to reach half-maximal inhibition (IC50).
For `CC(=NNC(=O)Cc1ccccc1Nc1c(Cl)cccc1Cl)c1nnn(-c2ccc(S(=O)(=O)Nc3ncccn3)cc2)c1C` [Compound 6f, 4-(4-(1-(2-(2-(2-((2,6-Dichlorophenyl)amino)phenyl)acetyl)hydrazineylidene)ethyl)-5-methyl-1H-1,2,3-triazol-1-yl)-N-(pyrimidin-2-yl)benzenesulfonamide], in that order: 276 to 278 °C, 12.67 ± 0.0333 µM, 158.38 and 80 ± 0.7 nM.
For `CC(=NNC(=O)c1ccccc1O)c1nnn(-c2ccc(S(=O)(=O)Nc3nccs3)cc2)c1C` [Compound 6h, 4-(4-(1-(2-(2-Hydroxybenzoyl)hydrazineylidene)ethyl)-5-methyl-1H-1,2,3-triazol-1-yl)-N-(thiazol-2-yl)benzenesulfonamide], in that order: 227 to 229 °C, 8.27 ± 0.0667 µM, 91.89 and 90 ± 0.6 nM.
On the same counts, the results for `CC(=NNC(=O)C(C)c1ccc(CC(C)C)cc1)c1nnn(-c2ccc(S(=O)(=O)Nc3ncccn3)cc2)c1C` (stereo not drawn) [Compound 6c, 4-(4-(1-(2-(2-(4-Isobutylphenyl)propanoyl)hydrazineylidene)ethyl)-5-methyl-1H-1,2,3-triazol-1-yl)-N-(pyrimidin-2-yl)benzenesulfonamide] are 257 to 259 °C, 11.17 ± 0.0333 µM, 159.57 and 70 ± 0.6 nM.
`CC(=NNC(=O)Cc1ccccc1Nc1c(Cl)cccc1Cl)c1nnn(-c2ccc(S(N)(=O)=O)cc2)c1C` [Compound 6d, 4-(4-(1-(2-(2-(2-((2,6-Dichlorophenyl)amino)phenyl)acetyl)hydrazineylidene)ethyl)-5-methyl-1H-1,2,3-triazol-1-yl)benzenesulfonamide] gave a melting point of 241 to 243 °C. Further, the half-maximal inhibitory concentration (IC50) in series [1] turned out to be 8.4 ± 0.0577 µM. In addition, in series [2], the “SI COX-1/COX-2” value is given as 105 and inhibition was half-maximal at 80 ± 0.9 nM (IC50).
On the same counts, the results for `CC(=NNC(=O)c1ccccc1O)c1nnn(-c2ccc(S(=O)(=O)Nc3ncccn3)cc2)c1C` [Compound 6i, 4-(4-(1-(2-(2-Hydroxybenzoyl)hydrazineylidene)ethyl)-5-methyl-1H-1,2,3-triazol-1-yl)-N-(pyrimidin-2-yl)benzenesulfonamide] are 248 to 250 °C, 10.23 ± 0.0882 µM, 146.14 and 70 ± 0.6 nM.
On the same counts, the results for `CC(=NNC(=O)C(C)c1ccc(CC(C)C)cc1)c1nnn(-c2ccc(S(N)(=O)=O)cc2)c1C` (stereo not drawn) [Compound 6a, 4-(4-(1-(2-(2-(4-Isobutylphenyl)propanoyl)hydrazineylidene)ethyl)-5-methyl-1H-1,2,3-triazol-1-yl)benzenesulfonamide] are 205 to 207 °C, 9.13 ± 0.0882 µM, 114.13 and 80 ± 0.6 nM.

As a reminder, the IC50 is the point on the concentration scale where inhibition reaches its midpoint. Read a low IC50 as inhibition by little substance. Broadly, the melting point is the temperature of the solid-liquid transition.
